Results from ChEMBL document CHEMBL5154873, “Selective degradation of PARP2 by PROTACs via recruiting DCAF16 for triple-negative breast cancer” (Eur J Med Chem, 2022).
Activity calls are given as the source filed them. The rule behind the calls is not given here.

How the values were obtained:
[1] = system: HepG2; assay: Antiproliferative activity against human HepG2 cells over expressing DCAF16 assessed as reduction in cell viability incubated for 5 to 10 days by MTT assay; type: functional, cell-based; conditions: time 5-10 day
[2] = system: MDA-MB-231; assay: Inhibition of colony formation in human MDA-MB-231 cells measured after 14 days by crystal violet staining based analysis; type: functional, cell-based; conditions: dose 0.312-5 µM, time 14.0 day, DDE = dose-dependent effect
[3] = Toxicity in BALB/c mouse xenografted with MDA-MB-231 cells assessed as pathological changes in heart at 25 mg/kg, ip measured after 21 days by hematoxylin and eosin staining based assay; type: organism-based; conditions: in vivo, 504 h, time 21 day
[4] = biological target: T1, DDB1- and CUL4-associated factor 16/Poly [ADP-ribose] polymerase 2 (Homo sapiens, UniProt Q9UGN5+Q9NXF7); assay: Protac activity at DCAF16 E3 ligase/PARP2 in human MDA-MB-231 cells assessed as maximum degradation of PARP2 measured after 24 hrs by Western blot analysis relative to control; type: cell-based
Target sequence in this assay (Q9NXF7 whole entry, looked up): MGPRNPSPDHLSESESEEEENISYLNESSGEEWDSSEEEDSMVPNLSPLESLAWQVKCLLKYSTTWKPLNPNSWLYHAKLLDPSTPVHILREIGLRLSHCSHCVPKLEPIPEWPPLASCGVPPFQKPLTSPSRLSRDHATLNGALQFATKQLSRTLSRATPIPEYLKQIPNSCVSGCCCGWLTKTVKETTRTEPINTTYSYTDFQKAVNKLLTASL
Target sequence in this assay (Q9UGN5 whole entry, looked up): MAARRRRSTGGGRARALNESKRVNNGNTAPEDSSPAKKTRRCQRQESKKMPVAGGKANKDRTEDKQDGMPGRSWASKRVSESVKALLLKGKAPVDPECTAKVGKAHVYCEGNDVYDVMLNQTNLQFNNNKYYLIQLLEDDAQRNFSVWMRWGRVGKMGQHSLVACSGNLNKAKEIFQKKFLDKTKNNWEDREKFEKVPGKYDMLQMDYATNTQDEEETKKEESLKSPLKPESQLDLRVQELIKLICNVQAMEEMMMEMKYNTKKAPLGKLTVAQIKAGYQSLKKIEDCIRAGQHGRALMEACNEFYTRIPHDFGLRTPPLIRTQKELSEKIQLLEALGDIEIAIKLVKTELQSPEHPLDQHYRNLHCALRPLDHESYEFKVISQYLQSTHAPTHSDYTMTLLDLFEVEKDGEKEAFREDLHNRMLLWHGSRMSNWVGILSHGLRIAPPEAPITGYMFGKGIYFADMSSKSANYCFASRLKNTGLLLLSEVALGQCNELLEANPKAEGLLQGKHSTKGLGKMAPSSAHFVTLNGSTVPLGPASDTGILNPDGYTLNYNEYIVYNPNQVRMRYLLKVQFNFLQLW

[5] = system: MDA-MB-231; assay: In vivo antitumor activity against human MDA-MB-231 cells xenografted BALB/c mouse assessed as tumor growth inhibition at 12.5 mg/kg, ip measured after 21 days; type: functional; conditions: MDA-MB-231, 504 h, time 21 day, read-out: TGI
[6] = biological target: T1, DDB1- and CUL4-associated factor 16/Poly [ADP-ribose] polymerase 2; assay: Protac activity at DCAF16 E3 ligase/PARP2 in human MDA-MB-231 cells assessed as induction of PARP2 degradation at 0.5 uM measured after 8 hrs by Western blot analysis; type: cell-based
Target sequence in this assay (Q9NXF7 whole entry, looked up): as the sequence (Q9NXF7 whole entry, looked up) above
Target sequence in this assay (Q9UGN5 whole entry, looked up): as the sequence (Q9UGN5 whole entry, looked up) above

[7] = system: SK-OV-3; assay: Antiproliferative activity against human SK-OV-3 cells over expressing DCAF16 assessed as reduction in cell viability incubated for 5 to 10 days by MTT assay; type: functional, cell-based; conditions: time 5-10 day
[8] = system: NCI-H2228; assay: Antiproliferative activity against human H2228 cells over expressing DCAF16 assessed as reduction in cell viability incubated for 5 to 10 days by MTT assay; type: functional, cell-based; conditions: time 5-10 day
[9] = system: MDA-MB-231; assay: In vivo antitumor activity against human MDA-MB-231 cells xenografted BALB/c mouse assessed as tumor growth inhibition at 100 mg/kg, IG measured after 21 days; type: functional; conditions: MDA-MB-231, po, 504 h, time 21 day, read-out: TGI
[10] = Toxicity in BALB/c mouse xenografted with MDA-MB-231 cells assessed as pathological changes in kidney at 25 mg/kg, ip measured after 21 days by hematoxylin and eosin staining based assay; type: organism-based; conditions: in vivo, 504 h, time 21 day
[11] = biological target: T1, DDB1- and CUL4-associated factor 16/Poly [ADP-ribose] polymerase 2; assay: Protac activity at DCAF16 E3 ligase/PARP2 in human MDA-MB-231 cells assessed as induction of PARP2 degradation in nucleus at 0.5 uM measured after 24 hrs by DAPI staining based immunofluorescence microscopy; type: cell-based
Target sequence in this assay (Q9NXF7 whole entry, looked up): as the sequence (Q9NXF7 whole entry, looked up) above
Target sequence in this assay (Q9UGN5 whole entry, looked up): as the sequence (Q9UGN5 whole entry, looked up) above

[12] = system: MDA-MB-231; assay: Induction of cell cycle arrest in human MDA-MB-231 cells assessed as accumulation at G2/M phase measured after 24 hrs by flow cytometry analysis; type: functional, cell-based; conditions: dose 0.156-1.25 µM, DDE = dose-dependent effect
[13] = biological target: Poly [ADP-ribose] polymerase 1 (Homo sapiens, UniProt P09874); assay: Inhibition of PARP1 (unknown origin)
[14] = Toxicity in BALB/c mouse xenografted with MDA-MB-231 cells assessed as change in body weight at 12.5 to 25 mg/kg, ip measured after 21 days; type: organism-based; conditions: in vivo, 504 h, dose 12.5-25 mg/kg, time 21 day
[15] = Toxicity in BALB/c mouse xenografted with MDA-MB-231 cells assessed as change in body weight at 100 mg/kg, IG measured after 21 days; type: organism-based; conditions: in vivo, po, 504 h, time 21 day
[16] = Toxicity in BALB/c mouse xenografted with MDA-MB-231 cells assessed as mortality at 12.5 to 25 mg/kg, ip measured after 21 days; type: organism-based; conditions: in vivo, 504 h, dose 12.5-25 mg/kg, time 21 day
[17] = system: MDA-MB-231; assay: Induction of apoptosis in human wild type MDA-MB-231 cells at 1.25 uM measured after 48 hrs by Annexin V-FITC/PI staining based flow cytometry method; type: functional
[18] = system: L02; assay: Cytotoxicity against human L02 cells; type: toxicity, cell-based
[19] = Toxicity in BALB/c mouse xenografted with MDA-MB-231 cells assessed as pathological changes in liver at 25 mg/kg, ip measured after 21 days by hematoxylin and eosin staining based assay; type: organism-based; conditions: in vivo, 504 h, time 21 day
[20] = biological target: Poly [ADP-ribose] polymerase 2 (Homo sapiens, UniProt Q9UGN5); assay: Inhibition of PARP2 (unknown origin)
[21] = system: NCI-H3122; assay: Antiproliferative activity against human H3122 cells over expressing DCAF16 assessed as reduction in cell viability incubated for 5 to 10 days by MTT assay; type: functional, cell-based; conditions: time 5-10 day
[22] = system: MV4-11; assay: Antiproliferative activity against human MV4-11 cells over expressing DCAF16 assessed as reduction in cell viability incubated for 5 to 10 days by MTT assay; type: functional, cell-based; conditions: time 5-10 day
[23] = biological target: T1, DDB1- and CUL4-associated factor 16/Poly [ADP-ribose] polymerase 2; assay: Protac activity at DCAF16 E3 ligase/PARP2 in human MDA-MB-231 cells assessed as induction of PARP2 degradation at 0.5 uM preincubated for 2 hrs followed by compound washout measured after 48 hrs by Western blot analysis; type: cell-based
Target sequence in this assay (Q9NXF7 whole entry, looked up): as the sequence (Q9NXF7 whole entry, looked up) above
Target sequence in this assay (Q9UGN5 whole entry, looked up): as the sequence (Q9UGN5 whole entry, looked up) above

[24] = Toxicity in BALB/c mouse xenografted with MDA-MB-231 cells assessed as morbidity at 100 mg/kg, IG measured after 21 days; type: organism-based; conditions: in vivo, po, 504 h, time 21 day
[25] = biological target: T1, DDB1- and CUL4-associated factor 16/Poly [ADP-ribose] polymerase 2; assay: Protac activity at DCAF16 E3 ligase/PARP2 in human MDA-MB-231 cells assessed as induction of PARP2 degradation at 1 uM measured after 24 hrs by Western blot analysis; type: cell-based
Target sequence in this assay (Q9NXF7 whole entry, looked up): as the sequence (Q9NXF7 whole entry, looked up) above
Target sequence in this assay (Q9UGN5 whole entry, looked up): as the sequence (Q9UGN5 whole entry, looked up) above

[26] = Toxicity in BALB/c mouse xenografted with MDA-MB-231 cells assessed as pathological changes in lung at 25 mg/kg, ip measured after 21 days by hematoxylin and eosin staining based assay; type: organism-based; conditions: in vivo, 504 h, time 21 day
[27] = Toxicity in BALB/c mouse xenografted with MDA-MB-231 cells assessed as mortality at 100 mg/kg, IG measured after 21 days; type: organism-based; conditions: in vivo, po, 504 h, time 21 day
[28] = system: MDA-MB-468; assay: Potency index, ratio of IC50 of Olaparib to IC50 of test compound antiproliferative activity against human PTEN -/- MDA-MB-468 cells assessed as reduction in cell viability incubated for 5 to 10 days by MTT assay; type: functional; conditions: time 5-10 day
[29] = system: HeLa; assay: Antiproliferative activity against human HeLa cells over expressing DCAF16 assessed as reduction in cell viability incubated for 5 to 10 days by MTT assay; type: functional, cell-based; conditions: time 5-10 day
[30] = system: MDA-MB-231; assay: Antitumor activity against human MDA-MB-231 cells xenografted BALB/c mouse assessed as reduction in tumor weight at 25 mg/kg, ip measured after 21 days; type: functional, organism-based; conditions: time 21.0 day
[31] = Toxicity in BALB/c mouse xenografted with MDA-MB-231 cells assessed as morbidity at 12.5 to 25 mg/kg, ip measured after 21 days; type: organism-based; conditions: in vivo, 504 h, dose 12.5-25 mg/kg, time 21 day
[32] = system: MDA-MB-231; assay: Antiproliferative activity against wild type human MDA-MB-231 cells assessed as reduction in cell viability incubated for 5 to 10 days by MTT assay; type: functional, cell-based
[33] = system: MDA-MB-231; assay: Potency index, ratio of IC50 of Olaparib to IC50 of test compound antiproliferative activity against wild type human MDA-MB-231 cells assessed as reduction in cell viability incubated for 5 to 10 days by MTT assay; type: functional; conditions: time 5-10 day
[34] = biological target: T1, DDB1- and CUL4-associated factor 16/Poly [ADP-ribose] polymerase 2; assay: Protac activity at DCAF16 E3 ligase/PARP2 in human MDA-MB-231 cells assessed as induction of PARP2 degradation measured after 24 hrs by Western blot analysis; type: cell-based
Target sequence in this assay (Q9UGN5 whole entry): as the sequence (Q9UGN5 whole entry, looked up) above
Target sequence in this assay (Q9NXF7 whole entry): as the sequence (Q9NXF7 whole entry, looked up) above

[35] = system: CAPAN-1; assay: Antiproliferative activity against human BRCA2 -/- CAPAN-1 cells assessed as reduction in cell viability incubated for 5 to 10 days by MTT assay; type: functional, cell-based
[36] = Toxicity in BALB/c mouse xenografted with MDA-MB-231 cells assessed as pathological changes in spleen at 25 mg/kg, ip measured after 21 days by hematoxylin and eosin staining based assay; type: organism-based; conditions: in vivo, 504 h, time 21 day
[37] = system: MDA-MB-436; assay: Induction of cell cycle arrest in human (BRAC1-/-) MDA-MB-436 cells assessed as accumulation at G2/M phase measured after 48 hrs by flow cytometry analysis; type: functional, cell-based; conditions: dose 0.312-2.5 µM, DDE = dose-dependent effect
[38] = system: MDA-MB-231; assay: In vivo antitumor activity against human MDA-MB-231 cells xenografted BALB/c mouse assessed as tumor growth inhibition at 25 mg/kg, ip measured after 21 days; type: functional; conditions: MDA-MB-231, 504 h, time 21 day, read-out: TGI
[39] = system: MDA-MB-436; assay: Antiproliferative activity against human BRCA1 -/- MDA-MB-436 cells assessed as reduction in cell viability incubated for 5 to 10 days by MTT assay; type: functional, cell-based
[40] = system: SW-620; assay: Antiproliferative activity against human SW-620 cells over expressing DCAF16 assessed as reduction in cell viability incubated for 5 to 10 days by MTT assay; type: functional, cell-based; conditions: time 5-10 day
[41] = system: MDA-MB-468; assay: Antiproliferative activity against human PTEN -/- MDA-MB-468 cells assessed as reduction in cell viability incubated for 5 to 10 days by MTT assay; type: functional, cell-based

Chain of Poly [ADP-ribose] polymerase 1 (P09874 whole entry): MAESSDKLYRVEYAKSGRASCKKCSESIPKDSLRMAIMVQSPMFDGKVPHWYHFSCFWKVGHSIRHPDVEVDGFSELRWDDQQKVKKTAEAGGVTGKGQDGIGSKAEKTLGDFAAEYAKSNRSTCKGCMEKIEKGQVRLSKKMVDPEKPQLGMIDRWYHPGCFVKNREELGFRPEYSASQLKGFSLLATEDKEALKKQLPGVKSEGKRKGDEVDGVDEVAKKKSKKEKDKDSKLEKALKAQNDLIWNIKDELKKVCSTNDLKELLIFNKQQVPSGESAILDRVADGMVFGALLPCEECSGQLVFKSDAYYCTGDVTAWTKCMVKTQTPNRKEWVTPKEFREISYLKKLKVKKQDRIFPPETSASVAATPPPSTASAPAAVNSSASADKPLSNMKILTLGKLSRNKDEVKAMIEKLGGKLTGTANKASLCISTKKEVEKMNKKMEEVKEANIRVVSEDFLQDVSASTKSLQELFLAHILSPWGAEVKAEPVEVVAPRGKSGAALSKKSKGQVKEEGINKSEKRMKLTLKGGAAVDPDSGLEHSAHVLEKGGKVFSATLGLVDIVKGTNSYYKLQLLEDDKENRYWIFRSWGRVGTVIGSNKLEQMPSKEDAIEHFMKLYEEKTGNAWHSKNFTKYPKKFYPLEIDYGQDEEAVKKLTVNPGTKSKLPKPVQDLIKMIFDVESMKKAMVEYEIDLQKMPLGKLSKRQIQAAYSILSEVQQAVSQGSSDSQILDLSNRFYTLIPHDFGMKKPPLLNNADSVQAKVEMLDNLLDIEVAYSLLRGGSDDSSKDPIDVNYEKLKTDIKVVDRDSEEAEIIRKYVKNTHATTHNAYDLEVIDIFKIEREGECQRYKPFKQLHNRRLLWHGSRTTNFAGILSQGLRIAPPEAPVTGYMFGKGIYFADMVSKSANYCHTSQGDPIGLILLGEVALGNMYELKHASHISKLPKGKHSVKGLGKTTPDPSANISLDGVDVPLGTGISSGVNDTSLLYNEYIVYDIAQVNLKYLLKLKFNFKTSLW
Chain of Poly [ADP-ribose] polymerase 2 (Q9UGN5 whole entry): as the sequence (Q9UGN5 whole entry, looked up) above

Structure (SMILES): O=C(COc1ccc2c(c1)CCCN2C(=O)CCl)NCCCCCCCCCC(=O)N1CCN(C(=O)c2cc(Cc3n[nH]c(=O)c4ccccc34)ccc2F)CC1
- inhibition [1]: Active
- inhibition [2]: Dde
- Activity [3]: Non-Toxic
- Activity [4]: > 92%
- inhibition in vivo at 12.5 mg/kg [5]: 82.9%
- Activity [6]: Active
- inhibition [7]: Active
- inhibition [8]: Active
- inhibition in vivo at 100 mg/kg [9]: 63.5%
- Activity [10]: Non-Toxic
- Activity [11]: Active
- Activity [12]: Dde
- IC50 [13]: 2.74 nM
- Activity [14]: Non-Toxic
- Activity [15]: Non-Toxic
- Activity [16]: Non-Toxic
- Activity [17]: 20%
- Activity [18]: Non-Toxic
- Activity [19]: Non-Toxic
- IC50 [20]: 0.32 nM
- inhibition [21]: Active
- inhibition [22]: Active
- Activity [23]: Active
- Activity [24]: Non-Toxic
- Activity [25]: Active
- Activity [26]: Non-Toxic
- Activity [27]: Non-Toxic
- Ratio IC50 [28]: 6
- inhibition [29]: Active
- Activity [30]: Active
- Activity [31]: Non-Toxic
- IC50 [32]: 530 nM
- Ratio IC50 [33]: 6
- DC50 [34]: 2000 nM
- IC50 [35]: 61 nM
- Activity [36]: Non-Toxic
- Activity [37]: Dde
- inhibition in vivo at 25 mg/kg [38]: 98.3%
- IC50 [39]: 26 nM
- inhibition [40]: Active
- IC50 [41]: 690 nM
